System: MV-4-11 cells
Assay: Gene expression microarray analysis (Affymetrix PrimeView) and GSEA
Assay type: cell-based, human
Set-up: RFU PODN (11730768_x_at) / Fold change /veh PODN (11730768_x_at) / RFU LINC00158 (11744669_a_at) / Fold change /veh LINC00158 (11744669_a_at) / RFU DUSP10 (11751237_a_at) / Fold change /veh DUSP10 (11751237_a_at) / RFU ID3 (11757404_x_at) / Fold change /veh ID3 (11757404_x_at) / RFU PLEKHG5 (11737974_s_at) / Fold change /veh PLEKHG5 (11737974_s_at) / RFU LRRC4B (11730491_at) / Fold change /veh LRRC4B (11730491_at) / RFU GIMAP4 (11747438_a_at) / Fold change /veh GIMAP4 (11747438_a_at) / RFU KRT8 (11758183_x_at) / Fold change /veh KRT8 (11758183_x_at) / RFU CNN1 (11734310_a_at) / Fold change /veh CNN1 (11734310_a_at) / RFU VPS37D (11726825_at) / Fold change /veh VPS37D (11726825_at) / RFU C10orf10 (11716522_x_at) / Fold change /veh C10orf10 (11716522_x_at) / RFU KIR2DL2 /// KIR2DL4 /// KIR2DL5A /// KIR2DL5B /// KIR2DS1 /// KIR2DS2 /// KIR2DS3 /// KIR2DS4 /// KIR3DL3 /// KIR3DL3 /// KIR3DS1 (11738374_at) / Fold change /veh KIR2DL2 /// KIR2DL4 /// KIR2DL5A /// KIR2DL5B /// KIR2DS1 /// KIR2DS2 /// KIR2DS3 /// KIR2DS4 /// KIR3DL3 /// KIR3DL3 /// KIR3DS1 (11738374_at) / RFU C1QL1 (11718748_at) / Fold change /veh C1QL1 (11718748_at) / RFU TMPRSS4 (11747572_a_at) / Fold change /veh TMPRSS4 (11747572_a_at) / RFU HAMP (11756126_x_at) / Fold change /veh HAMP (11756126_x_at) / RFU RNFT2 (11725882_a_at) / Fold change /veh RNFT2 (11725882_a_at) / RFU NR4A2 (11747474_a_at) / Fold change /veh NR4A2 (11747474_a_at) / RFU ABCC12 (11746883_a_at) / Fold change /veh ABCC12 (11746883_a_at) / RFU TMEM136 (11760407_x_at) / Fold change /veh TMEM136 (11760407_x_at) / RFU CLDN22 /// WWC2 (11732394_at) / Fold change /veh CLDN22 /// WWC2 (11732394_at) / RFU HLA-DPB1 (11760878_x_at) / Fold change /veh HLA-DPB1 (11760878_x_at) / RFU SPINT1 (11716480_a_at) / Fold change /veh SPINT1 (11716480_a_at) / RFU GAP43 (11754022_s_at) / Fold change /veh GAP43 (11754022_s_at) / RFU A4GNT (11735810_at) / Fold change /veh A4GNT (11735810_at) / RFU PRB3 (11715151_x_at) / Fold change /veh PRB3 (11715151_x_at) / RFU TUBB4B (11761932_at) / Fold change /veh TUBB4B (11761932_at) / RFU CAPN14 (11732068_a_at) / Fold change /veh CAPN14 (11732068_a_at) / RFU TMCC2 (11721928_a_at) / Fold change /veh TMCC2 (11721928_a_at) / RFU IRGQ (11745062_a_at) / Fold change /veh IRGQ (11745062_a_at) / RFU FAM174B (11720279_a_at) / Fold change /veh FAM174B (11720279_a_at) / RFU TMPRSS4 (11748680_a_at) / Fold change /veh TMPRSS4 (11748680_a_at) / RFU FAM212B (11763350_a_at) / Fold change /veh FAM212B (11763350_a_at) / RFU PLEKHG5 (11743358_a_at) / Fold change /veh PLEKHG5 (11743358_a_at) / RFU ZSCAN30 (11745921_a_at) / Fold change /veh ZSCAN30 (11745921_a_at) / RFU CMKLR1 (11741424_a_at) / Fold change /veh CMKLR1 (11741424_a_at) / RFU LOC101060620 /// MAPK8IP1 (11723275_at) / Fold change /veh LOC101060620 /// MAPK8IP1 (11723275_at) / RFU SPTSSB (11747773_x_at) / Fold change /veh SPTSSB (11747773_x_at) / RFU PRSS12 (11739890_at) / Fold change /veh PRSS12 (11739890_at) / RFU BIN1 (11741810_x_at) / Fold change /veh BIN1 (11741810_x_at) / RFU WNT11 (11732464_a_at) / Fold change /veh WNT11 (11732464_a_at) / RFU C10orf10 (11716521_a_at) / Fold change /veh C10orf10 (11716521_a_at) / RFU C5orf56 (11738089_at) / Fold change /veh C5orf56 (11738089_at) / RFU CYB561 (11721691_x_at) / Fold change /veh CYB561 (11721691_x_at) / RFU ANKRD19P (11752326_a_at) / Fold change /veh ANKRD19P (11752326_a_at) / RFU OR2T12 /// OR2T33 /// OR2T8 (11738714_s_at) / Fold change /veh OR2T12 /// OR2T33 /// OR2T8 (11738714_s_at) / RFU VCAN (11748164_a_at) / Fold change /veh VCAN (11748164_a_at) / RFU JSRP1 (11732532_at) / Fold change /veh JSRP1 (11732532_at) / RFU KRTAP10-11 (11738290_x_at) / Fold change /veh KRTAP10-11 (11738290_x_at) / RFU MYO3A (11730013_a_at) / Fold change /veh MYO3A (11730013_a_at) / RFU EBF3 (11725865_a_at) / Fold change /veh EBF3 (11725865_a_at) / RFU CAMK2N1 (11719241_x_at) / Fold change /veh CAMK2N1 (11719241_x_at) / RFU C5orf56 (11738088_a_at) / Fold change /veh C5orf56 (11738088_a_at) / RFU OLFML3 (11715873_a_at) / Fold change /veh OLFML3 (11715873_a_at) / RFU LOC100653217 /// NTM (11731650_a_at) / Fold change /veh LOC100653217 /// NTM (11731650_a_at) / RFU MAPK11 (11762145_a_at) / Fold change /veh MAPK11 (11762145_a_at) / RFU FIZ1 (11724087_x_at) / Fold change /veh FIZ1 (11724087_x_at) / RFU OASL (11726364_x_at) / Fold change /veh OASL (11726364_x_at) / RFU SOX15 (11748057_x_at) / Fold change /veh SOX15 (11748057_x_at) / RFU CD79A (11719716_a_at) / Fold change /veh CD79A (11719716_a_at) / RFU HIST1H1D (11736915_at) / Fold change /veh HIST1H1D (11736915_at) / RFU CASKIN2 (11723855_a_at) / Fold change /veh CASKIN2 (11723855_a_at) / RFU LOC730098 (11760151_x_at) / Fold change /veh LOC730098 (11760151_x_at) / RFU OR4N2 (11742367_at) / Fold change /veh OR4N2 (11742367_at) / RFU PRRT2 (11749266_a_at) / Fold change /veh PRRT2 (11749266_a_at) / RFU SNX32 (11753110_a_at) / Fold change /veh SNX32 (11753110_a_at) / RFU CDHR5 (11726645_a_at) / Fold change /veh CDHR5 (11726645_a_at) / RFU RCAN1 (11760418_a_at) / Fold change /veh RCAN1 (11760418_a_at) / RFU FAM167A (11723789_a_at) / Fold change /veh FAM167A (11723789_a_at) / RFU FAM26E (11764081_at) / Fold change /veh FAM26E (11764081_at) / RFU ISYNA1 (11749810_s_at) / Fold change /veh ISYNA1 (11749810_s_at) / RFU ACY1 (11761880_at) / Fold change /veh ACY1 (11761880_at) / RFU 11764098_at / Fold change /veh 11764098_at / RFU SAMD14 (11745864_x_at) / Fold change /veh SAMD14 (11745864_x_at) / RFU NPB (11741838_a_at) / Fold change /veh NPB (11741838_a_at) / RFU TMPRSS6 (11731388_a_at) / Fold change /veh TMPRSS6 (11731388_a_at) / RFU KRTAP10-2 (11738614_at) / Fold change /veh KRTAP10-2 (11738614_at) / RFU ARHGAP8 /// PRR5-ARHGAP8 (11727945_x_at) / Fold change /veh ARHGAP8 /// PRR5-ARHGAP8 (11727945_x_at) / RFU KRTAP5-7 /// NADSYN1 (11734609_at) / Fold change /veh KRTAP5-7 /// NADSYN1 (11734609_at) / RFU RASL12 (11751679_a_at) / Fold change /veh RASL12 (11751679_a_at) / RFU CDKN2B (11736163_a_at) / Fold change /veh CDKN2B (11736163_a_at) / RFU PRF1 (11729649_at) / Fold change /veh PRF1 (11729649_at) / RFU, ZNF638 /// ZNF638-IT1 / Fold change vs veh, ZNF638 /// ZNF638-IT1 / RFU, PANK3 / Fold change vs veh, PANK3 / RFU, SH3YL1 / Fold change vs veh, SH3YL1 / RFU, ZEB2 / Fold change vs veh, ZEB2 / RFU, NRIP1 / Fold change vs veh, NRIP1 / RFU, PTTG1IP / Fold change vs veh, PTTG1IP / RFU, CAPN2 / Fold change vs veh, CAPN2 / RFU, MED14 / Fold change vs veh, MED14 / RFU, SNORA58 / Fold change vs veh, SNORA58 / RFU, C1orf63 / Fold change vs veh, C1orf63 / RFU, LRRFIP1 / Fold change vs veh, LRRFIP1 / RFU, NDUFAF7 / Fold change vs veh, NDUFAF7 / RFU, SLC12A2 / Fold change vs veh, SLC12A2 / RFU, IBTK / Fold change vs veh, IBTK / RFU, ESF1 / Fold change vs veh, ESF1 / Fold change vs veh, TMEM50B / RFU, TAOK1 / Fold change vs veh, TAOK1 / RFU, ACBD3 / Fold change vs veh, ACBD3 / RFU, TMA16 / Fold change vs veh, TMA16 / RFU, RWDD3 / Fold change vs veh, RWDD3 / RFU, BCAT1 / Fold change vs veh, BCAT1 / RFU, EDEM3 / Fold change vs veh, EDEM3 / RFU, TMEM33 / Fold change vs veh, TMEM33 / RFU, WDR75 / Fold change vs veh, WDR75 / RFU, AHCTF1 / Fold change vs veh, AHCTF1 / RFU, TFRC / Fold change vs veh, TFRC / RFU, ZDHHC17 / Fold change vs veh, ZDHHC17 / RFU, NOM1 / Fold change vs veh, NOM1 / RFU, ARL8B / Fold change vs veh, ARL8B / RFU, ZBTB11 / Fold change vs veh, ZBTB11 / RFU, TAMM41 / Fold change vs veh, TAMM41 / RFU, KIAA1704 /// LOC100996395 / Fold change vs veh, KIAA1704 /// LOC100996395 / RFU, ING1 / Fold change vs veh, ING1 / RFU, TRMT61B / Fold change vs veh, TRMT61B / RFU, FUBP3 / Fold change vs veh, FUBP3 / RFU, TP53 / Fold change vs veh, TP53 / RFU, TNKS2 / Fold change vs veh, TNKS2 / RFU, ZFP14 / Fold change vs veh, ZFP14 / RFU, ACTR2 / Fold change vs veh, ACTR2 / RFU, PPP3R1 / Fold change vs veh, PPP3R1 / RFU, PIK3R1 / Fold change vs veh, PIK3R1 / RFU, HNRNPA1 / Fold change vs veh, HNRNPA1 / RFU, RNF170 / Fold change vs veh, RNF170 / RFU, ZNF28 / Fold change vs veh, ZNF28 / RFU, RNGTT / Fold change vs veh, RNGTT / RFU, OGT / Fold change vs veh, OGT / RFU, BRD1 / Fold change vs veh, BRD1 / RFU, MARS / Fold change vs veh, MARS / RFU, ZNF655 / Fold change vs veh, ZNF655 / RFU, FAHD1 / Fold change vs veh, FAHD1 / RFU, BDP1 / Fold change vs veh, BDP1 / RFU, LRRCC1 / Fold change vs veh, LRRCC1 / RFU, ARID1A / Fold change vs veh, ARID1A / RFU, ZNF146 / Fold change vs veh, ZNF146 / RFU, ZNF330 / Fold change vs veh, ZNF330 / RFU, GPN3 / Fold change vs veh, GPN3 / RFU, C9orf123 / Fold change vs veh, C9orf123 / RFU, N4BP2L2 / Fold change vs veh, N4BP2L2 / RFU, ARFIP1 / Fold change vs veh, ARFIP1 / RFU, FAM179B / Fold change vs veh, FAM179B / RFU, BCL10 / Fold change vs veh, BCL10 / RFU, UHRF1BP1L / Fold change vs veh, UHRF1BP1L / RFU, BET1 / Fold change vs veh, BET1 / RFU, CNOT2 / Fold change vs veh, CNOT2 / RFU, ZNF268 / Fold change vs veh, ZNF268 / Fold change vs veh, ZNF507 / RFU, DGCR2 / Fold change vs veh, DGCR2 / RFU, WDSUB1 / Fold change vs veh, WDSUB1 / Fold change vs veh, HSP90B1 /// MIR3652 / RFU, ADSS / Fold change vs veh, ADSS / RFU, GK / Fold change vs veh, GK / RFU, ZNF148 / Fold change vs veh, ZNF148 / RFU, TAF9 / Fold change vs veh, TAF9 / RFU, SLC1A5 / Fold change vs veh, SLC1A5 / RFU, SLMO2 / Fold change vs veh, SLMO2 / RFU, ABCC4 / Fold change vs veh, ABCC4 / RFU, LOC101060439 /// RAP1B / Fold change vs veh, LOC101060439 /// RAP1B / RFU, RFX7 / Fold change vs veh, RFX7 / RFU, GTPBP10 / Fold change vs veh, GTPBP10 / RFU, CNEP1R1 / Fold change vs veh, CNEP1R1 / RFU, BIVM-ERCC5 /// ERCC5 / Fold change vs veh, BIVM-ERCC5 /// ERCC5 / RFU, ILF3 / Fold change vs veh, ILF3 / RFU 11762660_at / Fold change /veh 11762660_at / RFU VCAN (11757783_s_at) / Fold change /veh VCAN (11757783_s_at) / RFU DDX43 (11728927_at) / Fold change /veh DDX43 (11728927_at) / RFU KRT8 (11758188_x_at) / Fold change /veh KRT8 (11758188_x_at) / RFU NKD1 (11759106_at) / Fold change /veh NKD1 (11759106_at) / RFU SRD5A1 (11742802_a_at) / Fold change /veh SRD5A1 (11742802_a_at) / RFU TPSAB1 /// TPSB2 (11721975_s_at) / Fold change /veh TPSAB1 /// TPSB2 (11721975_s_at) / RFU GSTM3 (11746129_a_at) / Fold change /veh GSTM3 (11746129_a_at) / RFU IL23R (11737362_x_at) / Fold change /veh IL23R (11737362_x_at) / RFU TMEM51 (11727254_a_at) / Fold change /veh TMEM51 (11727254_a_at) / RFU PIWIL2 (11732686_x_at) / Fold change /veh PIWIL2 (11732686_x_at) / RFU ORM1 (11744905_x_at) / Fold change /veh ORM1 (11744905_x_at) / RFU CCDC152 (11743942_at) / Fold change /veh CCDC152 (11743942_at) / RFU ECM1 (11717891_a_at) / Fold change /veh ECM1 (11717891_a_at) / RFU IL23R (11748794_a_at) / Fold change /veh IL23R (11748794_a_at) / RFU TNFAIP8L3 (11732012_x_at) / Fold change /veh TNFAIP8L3 (11732012_x_at) / RFU MBOAT4 (11741988_at) / Fold change /veh MBOAT4 (11741988_at) / RFU 11764193_at / Fold change /veh 11764193_at / RFU TMEM53 (11763286_at) / Fold change /veh TMEM53 (11763286_at) / RFU MAGEB2 (11727129_at) / Fold change /veh MAGEB2 (11727129_at) / RFU TMEM200A (11744735_a_at) / Fold change /veh TMEM200A (11744735_a_at) / RFU CCDC152 (11751479_a_at) / Fold change /veh CCDC152 (11751479_a_at) / RFU FAM211A (11726209_a_at) / Fold change /veh FAM211A (11726209_a_at) / RFU RGS16 (11746705_a_at) / Fold change /veh RGS16 (11746705_a_at) / RFU VCAN (11755009_s_at) / Fold change /veh VCAN (11755009_s_at) / RFU RHOB (11743442_s_at) / Fold change /veh RHOB (11743442_s_at) / RFU RGS16 (11720943_a_at) / Fold change /veh RGS16 (11720943_a_at) / RFU RGS16 (11720944_at) / Fold change /veh RGS16 (11720944_at) / RFU, VPS4B / Fold change vs veh, VPS4B / RFU, CREB1 / Fold change vs veh, CREB1 / RFU, DNAJC13 / Fold change vs veh, DNAJC13 / RFU, GNAQ / Fold change vs veh, GNAQ / RFU, CDK5R1 / Fold change vs veh, CDK5R1 / RFU, ZRANB3 / Fold change vs veh, ZRANB3 / RFU, CUL4A / Fold change vs veh, CUL4A / RFU, CCNY / Fold change vs veh, CCNY / RFU, UFL1 / Fold change vs veh, UFL1 / RFU, COG3 / Fold change vs veh, COG3 / RFU, DIAPH2 / Fold change vs veh, DIAPH2 / RFU, SKA2 / Fold change vs veh, SKA2 / RFU, AFF3 / Fold change vs veh, AFF3 / RFU, LMF1 / Fold change vs veh, LMF1 / RFU, IPO11 / Fold change vs veh, IPO11 / RFU, DFFB / Fold change vs veh, DFFB / RFU, FOXP1 / Fold change vs veh, FOXP1 / RFU, CARD8 / Fold change vs veh, CARD8 / RFU, STRN3 / Fold change vs veh, STRN3 / RFU, ADK / Fold change vs veh, ADK / RFU, RASSF2 / Fold change vs veh, RASSF2 / RFU, WIPF1 / Fold change vs veh, WIPF1 / RFU, LARP1B / Fold change vs veh, LARP1B / RFU, RASA1 / Fold change vs veh, RASA1 / RFU, RB1 / Fold change vs veh, RB1 / RFU, PPFIA1 / Fold change vs veh, PPFIA1 / RFU, MAT2A / Fold change vs veh, MAT2A / RFU, CCT5 / Fold change vs veh, CCT5 / RFU, WDR92 / Fold change vs veh, WDR92 / RFU, CUX1 / Fold change vs veh, CUX1 / RFU, TTC7A / Fold change vs veh, TTC7A / RFU, TMEM135 / Fold change vs veh, TMEM135 / RFU, DEPTOR / Fold change vs veh, DEPTOR / RFU, CPM / Fold change vs veh, CPM / RFU, DNAJB6 / Fold change vs veh, DNAJB6 / RFU, CACNA2D3 / Fold change vs veh, CACNA2D3 / RFU, DTX4 / Fold change vs veh, DTX4 / RFU, TFCP2 / Fold change vs veh, TFCP2 / RFU, GMCL1 /// GMCL1P1 / Fold change vs veh, GMCL1 /// GMCL1P1 / RFU, AEBP2 / Fold change vs veh, AEBP2 / RFU, SNHG1 /// SNORD22 /// SNORD25 /// SNORD26 /// SNORD27 /// SNORD28 /// SNORD29 /// SNORD31 / Fold change vs veh, SNHG1 /// SNORD22 /// SNORD25 /// SNORD26 /// SNORD27 /// SNORD28 /// SNORD29 /// SNORD31 / Fold change (Aza/veh), C12orf56 (ProbeSet 11735607_a_at) / Fold change (ACY-1035/veh), C12orf56 (ProbeSet 11735607_a_at) / Fold change (Aza/veh), FGFR1OP (ProbeSet 11751329_s_at) / Fold change (ACY-1035/veh), FGFR1OP (ProbeSet 11751329_s_at) / Fold change (Aza/veh), VPS36 (ProbeSet 11739960_a_at) / Fold change (ACY-1035/veh), VPS36 (ProbeSet 11739960_a_at) / RFU SYPL1 (11715823_x_at) / Fold change /veh SYPL1 (11715823_x_at) / RFU IGFBP7 (11715501_s_at) / Fold change /veh IGFBP7 (11715501_s_at) / RFU REEP3 (11722064_at) / Fold change /veh REEP3 (11722064_at) / RFU IGLL1 (11728026_x_at) / Fold change /veh IGLL1 (11728026_x_at): dose or concentration left out as unconfirmed
Conditions: MV-4-11 cells, 48 hours

Nc1ccc(-c2cccs2)cc1NC(=O)c1ccc2c(c1)cc(C1CC1)n2CCN1CCOCC1 [ACY-1035]
RFU FAM212B (11763350_a_at): 31.32 RFU

Source: publication PMC5218480 (PLoS ONE, 2017)
